Laboratory results reported in ChEMBL document CHEMBL1770133, “Design of potent and selective GPR119 agonists for type II diabetes” (Bioorg Med Chem Lett, 2011).
≈ marks a conversion by molar mass, not a printed value.

Key:
[1] = target: T1, Glucose-dependent insulinotropic receptor (Homo sapiens, UniProt Q8TDV5); test: Agonist activity at human GPR119 expressed in CHO cells co-expressing Galpha15 assessed as increase of intracellular cAMP accumulation after 60 mins by HTRF assay; format: functional, cell-based
T1 sequence (Q8TDV5 whole entry): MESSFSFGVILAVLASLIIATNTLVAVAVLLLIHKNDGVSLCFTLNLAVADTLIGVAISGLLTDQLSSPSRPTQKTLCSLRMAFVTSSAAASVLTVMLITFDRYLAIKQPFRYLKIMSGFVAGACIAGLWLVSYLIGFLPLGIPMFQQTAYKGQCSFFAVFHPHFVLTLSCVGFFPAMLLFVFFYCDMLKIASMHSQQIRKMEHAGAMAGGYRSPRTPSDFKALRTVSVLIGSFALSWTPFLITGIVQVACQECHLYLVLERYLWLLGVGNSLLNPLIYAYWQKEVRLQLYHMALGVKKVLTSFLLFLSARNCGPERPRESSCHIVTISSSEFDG

[2] = target: T2, Glucose-dependent insulinotropic receptor (Mus musculus, UniProt Q7TQP3); test: Agonist activity at mouse GPR119 expressed in CHO cells co-expressing Galpha15 assessed as increase of intracellular cAMP accumulation after 60 mins by HTRF assay; format: functional, cell-based
T2 sequence (Q7TQP3 whole entry): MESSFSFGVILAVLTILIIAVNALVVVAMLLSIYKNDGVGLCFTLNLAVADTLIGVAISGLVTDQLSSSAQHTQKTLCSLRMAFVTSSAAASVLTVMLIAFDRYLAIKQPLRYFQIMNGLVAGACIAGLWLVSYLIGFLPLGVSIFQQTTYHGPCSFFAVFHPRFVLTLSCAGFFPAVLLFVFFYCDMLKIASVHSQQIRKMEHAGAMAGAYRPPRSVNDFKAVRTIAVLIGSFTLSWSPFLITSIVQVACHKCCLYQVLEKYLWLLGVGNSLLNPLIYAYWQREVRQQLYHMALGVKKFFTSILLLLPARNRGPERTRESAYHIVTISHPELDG

[3] = target: T3, Glucose-dependent insulinotropic receptor (Mus musculus) (UniProt Q7TQP3); test: Agonist activity at mouse GPR119 expressed in CHO cells co-expressing Galpha15 assessed as increase of intracellular cAMP accumulation at 10 uM after 60 mins by HTRF assay; format: functional, cell-based
T3 sequence (whole entry): T2 sequence (Q7TQP3 whole entry)

[4] = Volume of distribution at steady state in mouse at 1 mg/kg, iv and 10 mg/kg, po; format: ADME, organism-based; conditions: in vivo, read-out: Vdss
[5] = Clearance in mouse at 1 mg/kg, iv and 10 mg/kg, po; format: ADME, organism-based; conditions: in vivo
[6] = Half life in mouse at 1 mg/kg, iv and 10 mg/kg, po; format: ADME, organism-based; conditions: in vivo
Mus musculus [7] = test: Dose normalized AUC in mouse at 1 mg/kg, iv and 10 mg/kg, po; format: ADME, organism-based; conditions: in vivo
Mus musculus [8] = test: Antidiabetic activity in high fat fed C57BL/6 mouse assessed as change in AUC of blood glucose level at 30 mg/kg, po qd administered 1 hr before glucose challenge measured up to 120 mins by oral glucose tolerance test relative to control; format: functional, C57BL6
[9] = target: T4, Voltage-gated inwardly rectifying potassium channel KCNH2 (Homo sapiens, UniProt Q12809); test: Inhibition of human ERG
T4 sequence (Q12809 whole entry): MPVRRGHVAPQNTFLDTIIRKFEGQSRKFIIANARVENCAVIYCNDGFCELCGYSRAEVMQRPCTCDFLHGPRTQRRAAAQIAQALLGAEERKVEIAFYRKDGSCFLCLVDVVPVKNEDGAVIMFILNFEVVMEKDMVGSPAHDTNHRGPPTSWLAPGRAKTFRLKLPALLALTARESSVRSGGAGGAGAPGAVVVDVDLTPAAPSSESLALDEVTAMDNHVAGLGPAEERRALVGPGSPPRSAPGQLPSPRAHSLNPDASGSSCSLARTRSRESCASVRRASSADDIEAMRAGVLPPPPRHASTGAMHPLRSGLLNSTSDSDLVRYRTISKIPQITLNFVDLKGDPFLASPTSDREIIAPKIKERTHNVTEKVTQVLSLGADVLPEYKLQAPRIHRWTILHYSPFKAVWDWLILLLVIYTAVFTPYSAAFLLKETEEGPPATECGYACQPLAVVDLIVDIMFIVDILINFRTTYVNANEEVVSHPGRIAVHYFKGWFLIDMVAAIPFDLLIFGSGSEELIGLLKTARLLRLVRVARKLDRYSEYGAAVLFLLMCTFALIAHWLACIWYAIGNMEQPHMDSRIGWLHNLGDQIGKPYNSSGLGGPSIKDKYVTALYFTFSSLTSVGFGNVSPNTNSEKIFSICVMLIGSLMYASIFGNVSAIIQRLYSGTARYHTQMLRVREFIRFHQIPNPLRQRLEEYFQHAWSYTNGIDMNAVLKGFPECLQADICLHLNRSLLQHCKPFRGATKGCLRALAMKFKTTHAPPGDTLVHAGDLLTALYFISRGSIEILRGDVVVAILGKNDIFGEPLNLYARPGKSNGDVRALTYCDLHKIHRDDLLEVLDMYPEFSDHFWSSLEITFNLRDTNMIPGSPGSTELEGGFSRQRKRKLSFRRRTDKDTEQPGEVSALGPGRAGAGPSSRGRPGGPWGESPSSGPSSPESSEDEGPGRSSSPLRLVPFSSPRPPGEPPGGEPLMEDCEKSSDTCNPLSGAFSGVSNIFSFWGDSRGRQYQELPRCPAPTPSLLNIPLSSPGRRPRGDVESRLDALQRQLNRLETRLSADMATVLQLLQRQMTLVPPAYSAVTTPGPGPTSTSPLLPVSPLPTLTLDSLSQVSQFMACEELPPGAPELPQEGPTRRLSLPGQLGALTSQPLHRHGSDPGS

Mus musculus [10] = test: Antidiabetic activity in high fat fed po dosed C57BL/6 mouse assessed as change in AUC of blood glucose level administered 1 hr before glucose challenge measured up to 120 mins by oral glucose tolerance test; format: functional; conditions: C57BL6, Blood, read-out: MED
Canis familiaris = species: Canis familiaris; test: Cardiotoxicity in dog assessed as QTc prolongation; format: toxicity, organism-based, Canis lupus familiaris; conditions: in vivo
[11] = Solubility of compound in PEG400 after 3 to 7 days; format: physicochemical
[12] = target: T4, Voltage-gated inwardly rectifying potassium channel KCNH2; test: Inhibition of human ERG by patch clamp technique
[13] = target: T5, Glucose-dependent insulinotropic receptor (Homo sapiens) (UniProt Q8TDV5); test: Agonist activity at human GPR119 expressed in CHO cells co-expressing Galpha15 assessed as increase of intracellular cAMP accumulation at 10 uM after 60 mins by HTRF assay; format: functional, cell-based
T5 sequence (whole entry): T1 sequence (Q8TDV5 whole entry)

| SMILES | EC50 [1] | EC50 [2] | further results |
| --- | --- | --- | --- |
| CC(C)(C)OC(=O)N1CCC(C2CCN(c3ccccn3)CC2)CC1 | 831 nM | 2500 nM | – |
| Cc1cccc(N2CCC(C3CCN(C(=O)OC(C)(C)C)CC3)CC2)c1 | 514 nM | – | Activity [3]: < 10% |
| CS(=O)(=O)c1ccc(N2CCC(C3CCN(c4ccc(Cl)cn4)CC3)CC2)cc1 | 48 nM | 131 nM | Vd [4]: 2.3 L/kg; clearance [5]: 2 mL/min/kg; half-life [6]: 810 min; AUC (Mus musculus [7]): 19.3 µM·kg·h/mg |
| Cc1cnc(N2CCC(C3CCN(c4cc(C#N)nc(C)n4)CC3)CC2)nc1 | 8 nM | 10 nM | Activity (Mus musculus [8]): 46%; IC50 [9]: 1800 nM |
| O=C(NC1CC1)c1ccc(OCCCC2CC2CCCC2CCN(c3ncc(Cl)cn3)CC2)cc1F (racemic) | 0.2 nM | 0.8 nM | – |
| CS(=O)(=O)c1ccc(N2CCC(C3CCN(c4ncccn4)CC3)CC2)cc1 | 98 nM | 887 nM | – |
| Cc1cc(N2CCC(C3CCN(c4ncc(Cl)cn4)CC3)CC2)nc(C#N)n1 | 2 nM | 11 nM | Activity (Mus musculus [8]): 37% |
| CC(=O)c1ccc(N2CCC(C3CCN(C(=O)OC(C)(C)C)CC3)CC2)cc1 | 25 nM | 341 nM | – |
| CC(C)(C)OC(=O)N1CCC(C2CCN(c3cc(C#N)ncn3)CC2)CC1 | 6 nM | 31 nM | – |
| CS(=O)(=O)c1ccc(N2CCC(C3CCN(c4cnccn4)CC3)CC2)cc1 | 201 nM | 239 nM | – |
| CSc1ccc(N2CCC(C3CCN(C(=O)OC(C)(C)C)CC3)CC2)cc1 | 600 nM | 513 nM | – |
| CS(=O)(=O)c1ccc(OCC[C@@H]2C[C@@H]2C2CCN(c3ncc(Cl)cn3)CC2)nc1 | 4 nM | 4 nM | Vd [4]: 2.1 L/kg; clearance [5]: 2.1 mL/min/kg; minimal effective dose (Mus musculus [10]): 1 mg/kg; Activity (Canis familiaris): Non-toxic; half-life [6]: 744 min; solubility [11]: 7100 µg/mL (≈ 16.2 mM); IC50 [12]: 19 µM; AUC (Mus musculus [7]): 12.1 µM·kg·h/mg |
| CC(C)(C)OC(=O)N1CCC(C2CCN(c3cccc(C(N)=O)c3)CC2)CC1 | – | – | Activity [13]: < 10%; Activity [3]: < 10% |
| O=C(NC1CC1)c1ccc(OCC2CC2CC2CCN(c3ncc(Cl)cn3)CC2)cc1F (racemic; 56) | 18 nM | 36 nM | IC50 [9]: 1200 nM |
| Cc1cc(N2CCC(C3CCN(C(=O)OC(C)(C)C)CC3)CC2)nc(C#N)n1 | 1 nM | 2 nM | – |
| CC(C)(C)OC(=O)N1CCC(C2CCN(c3ccccc3)CC2)CC1 | 1400 nM | – | Activity [3]: < 10% |
| Clc1cnc(N2CCC([C@H]3C[C@H]3CCOc3ccc(-n4ccnn4)cc3)CC2)nc1 | 4 nM | 6 nM | minimal effective dose (Mus musculus [10]): 10 mg/kg; solubility [11]: 5000 µg/mL (≈ 11.8 mM) |
| CC(C)(C)OC(=O)N1CCC(C2CCN(c3ccc(C(N)=O)cc3)CC2)CC1 | 76 nM | 165 nM | – |
| Cc1cnc(N2CCC(C3CCN(c4cc(C#N)nc(C)n4)CC3)CC2)cn1 | 30 nM | 82 nM | Activity (Mus musculus [8]): 7%; IC50 [9]: 5400 nM |
| CS(=O)(=O)c1ccc(N2CCC(C3CCN(c4ncc(Cl)cn4)CC3)CC2)cc1 | 5 nM | 8 nM | – |
| CC(C)(C)OC(=O)N1CCC(C2CCN(c3ncccn3)CC2)CC1 | 526 nM | 523 nM | – |
| CS(=O)(=O)c1ccc(N2CCC(C3CCN(c4ccc(C#N)cn4)CC3)CC2)cc1 | 62 nM | 41 nM | – |
| O=C(NC1CC1)c1ccc(OCCC2CC2C2CCN(c3ncc(Cl)cn3)CC2)cc1F (single isomer, unassigned; (-)) | 3 nM | 2 nM | IC50 [9]: 2600 nM |
| Cc1ccccc1N1CCC(C2CCN(C(=O)OC(C)(C)C)CC2)CC1 | – | – | Activity [13]: < 10%; Activity [3]: < 10% |
